Measurements as given in patent US20230256050A1, “COMPOSITIONS, METHODS AND USES COMPRISING TENEURIN C-TERMINAL ASSOCIATED PEPTIDE -1 (TCAP-1) FOR ENHANCING MUSCLE PERFORMANCE” (priority 2016, published 2023).
Where no end group is shown, it is not given here.

Key:
[1] = test system: C2C12 murine skeletal muscle cells; test: Radioactive glucose (3H-2-deoxyglucose) uptake in vitro; assay type: cell-based, mouse; settings: 100 nM, at 30 and 45 minutes (p<0.0001, p<0.001)
Method: (§1) Immortalized murine skeletal cell line C2C12 cells were used for all in vitro studies. Cells were maintained at 60-70% confluency with Dulbecco’s Modified Eagle Medium (DMEM) supplemented with 20% fetal bovine serum (FBS) and penicillin/streptomycin antibiotic combination. To induce differentiation, the media was changed to DMEM supplemented with 10% horse serum and penicillin/streptomycin antibiotic combination, and cells were allowed to differentiate for 6 days (media replaced every 24 h). For treatment, cells were serum starved for 3 h and then treated with either vehicle (ddH20) or TCAP-1 (100 nM).
Immortalized murine skeletal C2C12 cells were allowed to proliferate and differentiate and glucose uptake protocol was followed as previously described with minor modifications (Maher et al., 1991; Uemura & Greenlee, 2006). At day 6 post-plating, cells were washed 2x with Locke’s buffer (154 mM NaCl, 5.6 mM KCI, 2.3 mM CaCl2, 3.6 mM NaHCOs, 5 mM HEPES) without serum and glucose. The culture was incubated in the Locke’s buffer for 1 h at 37° C. followed by exposure to 100 nM insulin, 100 nM TCAP-1, 100 nM SC-TCAP-1, or saline. 3H-2-deoxyglucose (0.5 µCi/ml) was added to culture 5 min before termination of treatment exposure. […] Cell lysates were used for determination of radioactivity by a beta liquid scintillation counter (Beckman Coulter).

tibialis anterior muscle = test: Oxidative capacity, NADH staining of muscle cryosections; assay type: in vivo, Sprague-Dawley rats; settings: 10 nmoles/kg for 5 days
Method: Tibialis anterior muscles from the treated Sprague-Dawley rats were flash-frozen in liquid-nitrogen-cooled isopentane until cryosectioned at 10 µm thickness. Cryosections were then washed 2X with PBS, and then 0.2% NBT solution in PBS containing 0.1% NADH was added and allowed to incubate for 30 min at 37° C. Slides were washed 2X in PBS before mounted with cryoseal and imaged with Canon camera and Leica bright-field microscope at 100x magnification. Images were analyzed on Image J software and frequency distribution curves were constructed, where the darker the pixel represents higher NADH levels. Frequency curves were built based on average of five pictures per tissue, with a minimum of three tissues analysed for each group.

[2] = test system: diacylglycerol (DAG) levels, downstream signaling of ADGRL1, C2C12 skeletal cell line; test: Mouse diacylglycerol (DAG) ELISA in C2C12 cell lysates; assay type: cell-based; settings: TCAP-1 100 nM, after 60 minutes, p<0.0001
Method: as §1
The protocols provided by commercial DAG and IP3 assays (MyBiosource, San Diego, California USA). Briefly, immortalized mouse C2C12 cells were prepared using the TCAP-treatment protocol described previously. Cells were added to a microELISA plate coated with purified mouse DAG or IP3 antibodies, respectively. Subsequently, 3,3′,5,5′-tetramethylbenzidine (TMB) solution was added to detect the HRP-conjugates as the colour changes. Finally, a sulphuric acid solution was added to terminate the reaction. The absorbance change was measured at a wavelength of 450 nm using a spectrophotometer (SpectraMax Plus).

C2C12 myotubes = test: Mitochondrial membrane potential in C2C12 cells with Rhodamine-123; assay type: cell-based, mouse; settings: caffeine 4 mM; TCAP-1 100 nM pre-treatment for 1 hour, compared with caffeine alone
Method: C2C12 myotubes were cultured as previously described above. Changes in mitochondrial membrane potential were assessed using fluorescent indicator Rhodamine123 (R123). Cells were loaded with R123 by incubating a single coverslip in DMEM containing 5 µM R123 (from a 1 mM stock solution in DMSO) for 30 min (37° C.) followed by a 15 min wash in Locke’s Buffer containing (in mM): 154 mM NaCl, 4 mM NaHCOs, 5 mM KCI, 2.3 mM CaCl2, 1 mM MgCl2, 5 mM glucose and 10 mM Hepes (pH 7.4); osmolarity 305-310 mOsmol at 22° C. […] Changes in R123 fluorescence was imaged using a green fluorescent protein (GFP) filter set (Semrock, Rochester, NY, USA) and a X-Cite 120 fluorescence illumination system (Excelitas Technologies, Mississauga, ON, Canada), controlled by Volocity 4.0 imaging software (Quorum Technologies Inc., Guelph, ON, Canada). Fluorescence emissions were detected with an Orca-ER Hamamatsu B/W CCD digital camera (Hamamatsu, Middlesex, NJ, USA). R123 was excited with a wavelength of 480 nm for 100 ms every 5 sec and fluorescence emission was measured at wavelength of 516 nm. […] Using velocity 4.0 imaging software, multiple regions of interests (ROIs) were taken from each coverslip to be analysed.

TCAP-1: 41-mer peptide from the C-terminal of teneurin-1, synthesized amidated, suspended in 0.9% saline for subcutaneous injection (QQLLGTGRVQGYDGYFVLSVEQYLELSDSANNIHFMRQSEI-NH2)
3H-DG uptake into C2C12 cells vs vehicle [1]: significantly increased | NADH staining (oxidative capacity), unstimulated control limb, vs vehicle (tibialis anterior muscle; contralateral control limb, p<0.05): significant increased frequency of a stronger NADH-positive staining | TCAP-1-mediated increase in oxidative capacity (NADH), stimulated limb, vs vehicle (tibialis anterior muscle; exercised (stimulated) limb, p=0.1): maintained | DAG levels compared to vehicle treatment [2]: significantly decreased | mitochondrial membrane potential (Rhodamine123 fluorescence) (C2C12 myotubes): significantly higher membrane depolarization
